# Measurements: ChEMBL document CHEMBL4007467, “Effects of 6-paradol, an unsaturated ketone from gingers, on cytochrome P450-mediated drug metabolism” (Bioorg Med Chem Lett, 2017)
# Key:
# Assay type in all cases: ADME
# Parameters in all cases: scale not given: the % may be the effect or the level left
# CYP2D6 [1] = molecular target: T1, CYP2D6 (Homo sapiens, UniProt P10635); assay: Inhibition of CYP2D6 in human liver microsomes assessed as enzyme-mediated metabolite formation at 3 uM using dextromethorphan as substrate incubated for 5 mins followed by NADPH addition measured after 30 mins by LC-MS/MS analysis relative to control; details: probe dextromethorphan, read-out: Activity
# CYP2C8 [2] = molecular target: T2, CYP2C8 (Homo sapiens, UniProt P10632); assay: Inhibition of CYP2C8 in human liver microsomes assessed as enzyme-mediated metabolite formation at 3 uM using paclitaxel as substrate preincubated for 20 mins followed by substrate addition measured after 30 mins in presence of NADPH by LC-MS/MS analysis relative to control; details: probe paclitaxel, read-out: Activity
# T2 sequence (P10632 whole entry): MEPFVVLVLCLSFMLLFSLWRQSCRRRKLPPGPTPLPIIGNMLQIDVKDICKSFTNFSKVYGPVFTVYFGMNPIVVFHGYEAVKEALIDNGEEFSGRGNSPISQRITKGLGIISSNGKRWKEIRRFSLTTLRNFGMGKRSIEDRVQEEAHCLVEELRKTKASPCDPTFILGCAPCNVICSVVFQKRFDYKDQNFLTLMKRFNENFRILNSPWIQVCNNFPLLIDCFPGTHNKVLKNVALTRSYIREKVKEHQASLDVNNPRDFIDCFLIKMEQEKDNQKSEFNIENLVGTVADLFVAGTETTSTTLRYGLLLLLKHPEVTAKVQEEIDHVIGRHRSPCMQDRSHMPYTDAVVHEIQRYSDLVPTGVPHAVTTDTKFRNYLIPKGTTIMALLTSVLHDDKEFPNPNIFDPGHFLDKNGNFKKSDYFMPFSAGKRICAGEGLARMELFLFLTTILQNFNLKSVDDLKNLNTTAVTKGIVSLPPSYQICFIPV
# CYP2C9 [3] = molecular target: T3, CYP2C9 (Homo sapiens, UniProt P11712); assay: Inhibition of CYP2C9 in human liver microsomes assessed as enzyme-mediated metabolite formation at 1 uM using diclofenac as substrate preincubated for 20 mins followed by substrate addition measured after 30 mins in presence of NADPH by LC-MS/MS analysis relative to control; details: probe diclofenac, read-out: Activity
# CYP2C19 [4] = molecular target: T4, CYP2C19 (Homo sapiens, UniProt P33261); assay: Inhibition of CYP2C19 in human liver microsomes assessed as enzyme-mediated metabolite formation at 30 uM using (S)-mephenytoin as substrate incubated for 5 mins followed by NADPH addition measured after 30 mins by LC-MS/MS analysis relative to control; details: probe (S)-mephenytoin, read-out: Activity
# CYP2C8 [5] = molecular target: T2, CYP2C8; assay: Inhibition of CYP2C8 in human liver microsomes assessed as enzyme-mediated metabolite formation at 3 uM using paclitaxel as substrate incubated for 5 mins followed by NADPH addition measured after 30 mins by LC-MS/MS analysis relative to control; details: probe paclitaxel, read-out: Activity
# CYP2D6 [6] = molecular target: T1, CYP2D6; assay: Inhibition of CYP2D6 in human liver microsomes assessed as enzyme-mediated metabolite formation at 1 uM using dextromethorphan as substrate incubated for 5 mins followed by NADPH addition measured after 30 mins by LC-MS/MS analysis relative to control; details: probe dextromethorphan, read-out: Activity
# CYP2B6 [7] = molecular target: T5, CYP2B6 (Homo sapiens, UniProt P20813); assay: Inhibition of CYP2B6 in human liver microsomes assessed as enzyme-mediated metabolite formation at 0.1 uM using bupropion as substrate preincubated for 20 mins followed by substrate addition measured after 30 mins in presence of NADPH by LC-MS/MS analysis relative to control; details: probe bupropion, read-out: Activity
# T5 sequence (P20813 whole entry): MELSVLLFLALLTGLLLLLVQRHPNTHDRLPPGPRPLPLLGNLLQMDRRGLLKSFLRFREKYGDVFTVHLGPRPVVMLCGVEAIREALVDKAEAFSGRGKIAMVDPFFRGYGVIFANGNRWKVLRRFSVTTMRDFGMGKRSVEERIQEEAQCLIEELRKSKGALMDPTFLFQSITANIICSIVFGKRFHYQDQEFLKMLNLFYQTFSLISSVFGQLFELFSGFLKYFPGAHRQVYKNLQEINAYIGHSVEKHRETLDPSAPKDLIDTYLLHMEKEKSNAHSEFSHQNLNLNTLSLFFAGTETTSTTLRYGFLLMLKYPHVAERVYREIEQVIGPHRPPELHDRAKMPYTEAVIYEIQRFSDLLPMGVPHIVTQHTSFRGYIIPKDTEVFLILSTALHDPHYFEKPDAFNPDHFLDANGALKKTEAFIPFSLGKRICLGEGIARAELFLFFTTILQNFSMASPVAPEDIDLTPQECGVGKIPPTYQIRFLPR
# CYP2C9 [8] = molecular target: T3, CYP2C9; assay: Inhibition of CYP2C9 in human liver microsomes assessed as enzyme-mediated metabolite formation at 0.1 uM using diclofenac as substrate preincubated for 20 mins followed by substrate addition measured after 30 mins in presence of NADPH by LC-MS/MS analysis relative to control; details: probe diclofenac, read-out: Activity
# CYP2C19 [9] = molecular target: T4, CYP2C19; assay: Inhibition of CYP2C19 in human liver microsomes assessed as enzyme-mediated metabolite formation at 0.1 uM using (S)-mephenytoin as substrate incubated for 5 mins followed by NADPH addition measured after 30 mins by LC-MS/MS analysis relative to control; details: probe (S)-mephenytoin, read-out: Activity
# CYP2B6 [10] = molecular target: T5, CYP2B6; assay: Inhibition of CYP2B6 in human liver microsomes assessed as enzyme-mediated metabolite formation at 10 uM using bupropion as substrate incubated for 5 mins followed by NADPH addition measured after 30 mins by LC-MS/MS analysis relative to control; details: probe bupropion, read-out: Activity
# CYP2A6 = molecular target: T6, CYP2A6 (Homo sapiens, UniProt P11509); assay: Inhibition of CYP2A6 in human liver microsomes assessed as enzyme-mediated metabolite formation at 0.1 uM using coumarin as substrate incubated for 5 mins followed by NADPH addition measured after 30 mins by LC-MS/MS analysis relative to control; details: probe coumarin, read-out: Activity
# T6 sequence (P11509 whole entry): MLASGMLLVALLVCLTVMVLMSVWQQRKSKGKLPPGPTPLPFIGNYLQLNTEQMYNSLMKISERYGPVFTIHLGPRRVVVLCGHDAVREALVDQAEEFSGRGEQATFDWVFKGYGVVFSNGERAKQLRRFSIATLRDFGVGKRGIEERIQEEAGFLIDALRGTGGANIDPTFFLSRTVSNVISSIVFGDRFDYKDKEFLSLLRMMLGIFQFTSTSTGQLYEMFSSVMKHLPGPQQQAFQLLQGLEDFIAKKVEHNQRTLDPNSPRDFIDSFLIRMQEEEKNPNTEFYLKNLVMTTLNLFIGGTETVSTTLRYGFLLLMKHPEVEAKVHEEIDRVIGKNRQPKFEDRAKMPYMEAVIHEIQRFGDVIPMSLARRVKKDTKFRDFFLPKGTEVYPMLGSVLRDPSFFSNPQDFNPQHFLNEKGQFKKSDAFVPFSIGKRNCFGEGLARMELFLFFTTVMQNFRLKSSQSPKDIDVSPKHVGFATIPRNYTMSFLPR
# T3 sequence (P11712 whole entry): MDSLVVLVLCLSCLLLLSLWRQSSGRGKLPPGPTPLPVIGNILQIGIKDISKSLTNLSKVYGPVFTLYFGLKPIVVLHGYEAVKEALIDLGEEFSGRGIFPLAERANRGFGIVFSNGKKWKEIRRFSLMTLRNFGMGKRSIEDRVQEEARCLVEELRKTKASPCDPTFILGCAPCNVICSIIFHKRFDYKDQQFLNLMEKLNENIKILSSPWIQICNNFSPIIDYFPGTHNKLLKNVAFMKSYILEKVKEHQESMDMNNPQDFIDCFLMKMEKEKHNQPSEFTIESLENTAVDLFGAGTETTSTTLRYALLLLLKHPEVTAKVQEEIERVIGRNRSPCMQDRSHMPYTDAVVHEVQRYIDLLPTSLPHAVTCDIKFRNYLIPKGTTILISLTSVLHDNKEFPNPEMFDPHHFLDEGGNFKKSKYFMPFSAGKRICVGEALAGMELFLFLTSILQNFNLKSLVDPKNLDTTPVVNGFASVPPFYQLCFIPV
# T1 sequence (P10635 whole entry): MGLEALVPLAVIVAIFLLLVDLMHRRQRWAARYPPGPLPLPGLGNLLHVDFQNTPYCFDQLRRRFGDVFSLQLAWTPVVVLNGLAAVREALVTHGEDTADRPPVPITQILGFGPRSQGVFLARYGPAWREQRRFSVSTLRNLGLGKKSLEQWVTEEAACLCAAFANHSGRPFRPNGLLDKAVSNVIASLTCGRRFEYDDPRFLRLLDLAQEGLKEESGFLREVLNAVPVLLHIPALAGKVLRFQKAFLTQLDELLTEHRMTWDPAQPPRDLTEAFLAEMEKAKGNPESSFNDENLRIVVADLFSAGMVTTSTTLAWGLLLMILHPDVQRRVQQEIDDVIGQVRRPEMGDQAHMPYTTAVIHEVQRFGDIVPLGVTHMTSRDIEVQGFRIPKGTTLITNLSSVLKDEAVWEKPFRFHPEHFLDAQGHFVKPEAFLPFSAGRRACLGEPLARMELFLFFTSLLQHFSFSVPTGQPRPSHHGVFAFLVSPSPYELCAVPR
# T4 sequence (P33261 whole entry): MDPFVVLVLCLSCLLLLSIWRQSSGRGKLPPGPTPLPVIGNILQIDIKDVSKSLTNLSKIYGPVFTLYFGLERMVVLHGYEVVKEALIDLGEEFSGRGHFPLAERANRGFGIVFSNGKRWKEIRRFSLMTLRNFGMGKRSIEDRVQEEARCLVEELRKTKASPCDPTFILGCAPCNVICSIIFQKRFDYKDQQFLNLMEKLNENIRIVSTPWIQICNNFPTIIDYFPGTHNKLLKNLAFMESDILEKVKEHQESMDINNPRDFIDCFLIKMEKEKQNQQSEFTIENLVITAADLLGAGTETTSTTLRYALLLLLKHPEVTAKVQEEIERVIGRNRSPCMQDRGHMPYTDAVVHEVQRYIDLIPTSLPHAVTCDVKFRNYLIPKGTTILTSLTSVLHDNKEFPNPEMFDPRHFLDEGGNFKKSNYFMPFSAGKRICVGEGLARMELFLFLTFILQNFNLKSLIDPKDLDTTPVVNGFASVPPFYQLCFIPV
smiles,measurement,setting,value
CCCCCCCC(=O)CCc1ccc(O)c(OC)c1,"activity at 0.5 h, 3 µM",CYP2D6 [1],74.6%
same,"activity at 0.5 h, 3 µM",CYP2C8 [2],56.6%
same,"activity at 0.5 h, 1 µM",CYP2C9 [3],81.1%
same,"activity at 0.5 h, 30 µM",CYP2C19 [4],42%
same,"activity at 0.5 h, 3 µM",CYP2C8 [5],58.7%
same,"activity at 0.5 h, 1 µM",CYP2D6 [6],75.9%
same,"activity at 0.5 h, 0.1 µM",CYP2B6 [7],88.5%
same,"activity at 0.5 h, 0.1 µM",CYP2C9 [8],76%
same,"activity at 0.5 h, 0.1 µM",CYP2C19 [9],98.4%
same,"activity at 0.5 h, 10 µM",CYP2B6 [10],53.9%
same,"activity at 0.5 h, 0.1 µM",CYP2A6,103%
